Data: US7534766B2, “Glucuronide metabolites and epimers thereof of tigecycline” (Wyeth, priority 2004, dated 2009)
Read-outs that look alike come from different tables or passages of the source. Blank lines part the entries; values can stand above or below the compound they belong to.

Tests used:
[1] = LC/MS characterization of tigecycline related compounds in human serum, urine and feces; format: in vivo; settings: in vivo
Description: Three HPLC conditions were used during LC/MS analysis in this study. LC/MS Condition 1 was used for the majority of sample analyses for metabolite characterization and to isolate metabolite M3a from urine. LC/MS Condition 2 was used on selected samples to increase the retention time of glucuronide metabolites and for a co-chromatography experiment to confirm the identity of metabolites M8 and M9. LC/MS Condition 3 was used to analyze the polar metabolite M3a isolated from human urine.
The UV detector was set to monitor 340-360 nm. […] The flow rate was 0.2 mL/min. […] The linear mobile phase gradient is shown below.
Separations were accomplished on a Phenomenex Luna C18(2) column (250×2.0 mm, 5 μm) with a Uniguard C18 guard column (10×2 mm) (ThermoHypersil-Keystone). The flow rate was 0.2 mL/min. […] Mobile phase A was 0.02% trifluoroacetic acid in water (v/v) and mobile phase B was 0.02% trifluoroacetic acid in acetonitrile (v/v). The linear mobile phase gradient is shown below.
A Micromass Quattro Ultima triple quadrupole mass spectrometer (Waters Corp.) was operated in the positive ionization mode. LC/MS analysis with electrospray ionization (ESI) was conducted using a Z-spray interface. ESI-MS analysis of individual fractions from selected samples was conducted by direct infusion into a nanospray interface. Settings for the mass spectrometer are listed below.
Urine and feces samples were analyzed for tigecycline metabolites by LC/MS/MS analysis for precursors of product ions characteristic of tigecycline. Additionally, potential metabolites of tigecycline were searched for in the LC/MS data based upon results from previous studies in animals and humans.
Serum extracts were analyzed for tigecycline and selected metabolites by LC/MS/MS in the selected reaction monitoring (SRM) mode (LC/SRM) to reduce interference from endogenous components. […] The following tigecycline related components were monitored.

[2] = LC/MS detection of tigecycline metabolites in CD-1 mouse serum and urine after intravenous tigecycline; settings: mouse, in vivo, iv, 5 mg/kg
Experimental: Fifteen male CD-1 mice, with an average weight of 31.3 g at the time of dosing, were used. Animals were given food and water ad libitum. Mice in the 0.5 and 2 hour blood collection groups were housed in standard cages, while those in the 4 hour blood collection group were housed in metabolism cages for the collection of urine. Mice were dosed by the Bioresources Department at Wyeth Research, Collegeville, Pa.
For mice and rabbits, the intravenous dosing solutions was prepared by dissolving 50 mg of tigecycline in 5.0 mL of 0.9% sterile saline solution to make a working stock solution. The working stock solution was diluted with 0.9% sterile saline solution to 0.5 mg/mL for mice and 4 mg/mL for rabbits. The mouse dose (5 mg/kg, 10 mL/kg) was administered as a bolus injection via the tail vein. The rabbit dose (4 mg/kg, 1 mL/kg) was administered as a bolus injection via the marginal vein of the ear.
For mice (n=5/time point), blood (approximately 0.7 mL) was collected by cardiac puncture at 0.5, 2 and 4 hours following administration of tigecycline. For rabbits, blood (approximately 7 mL) was collected via the ear vein at 0.5, 2 and 6 hours following the tigecycline dose. Serum was separated following clot formation at room temperature and centrifugation for 15 minutes at 4° C. and 3000 rpm. The serum was transferred to a fresh tube and was stored at approximately −70° C. until analysis as described below under “Serum Sample Preparation for LC/MS Analysis. In addition, urine was collected from mice in the 4 hour blood collection group and was stored at approximately −70° C. until analysis, as described below under “Urine Sample Preparation for LC/MS Analysis.”
Mouse urine was thawed and an aliquot (1 mL) transferred to a fresh tube. The sample was centrifuged at 14,000 rpm and room temperature for 10 minutes using a Model 5415C Eppendorf centrifuge (Brinkmann Instruments, Westbury, N.Y.) to remove any particulates. The sample was then transferred to a fresh tube and was analyzed by LC/MS, as described below under “Liquid Chromatography/Mass Spectrometry Analysis.”.
Mouse and rabbit serum samples were pooled at each collection time and analyzed for tigecycline, its epimer, tigecycline glucuronide (M7 and its epimer M6), 9-aminominocycline (M3) and N-acetyl-9-aminominocycline (M9 and its epimer M8). Aliquots of serum (500 μL) were transferred to new tubes and deuterated tigecycline (30 ng/mL final concentration) was added as an internal standard (quantitative analysis only). EDTA (40 μL of 0.5 M EDTA) was added to each sample and the samples vortex mixed. Acetonitrile (500 μL) was added to each sample, samples were vortex mixed and denatured protein separated by centrifugation at 14,000 rpm and room temperature for 10 minutes using a Model 5415C Eppendorf centrifuge (Brinkmann Instruments). The supernatant was transferred to a fresh tube and the solvent evaporated under a stream of nitrogen using a Turbovap Model LV evaporator (Caliper Life Sciences, Hopkinton, Mass.).
The HPLC system used for mass spectrometric analysis was a Waters Alliance Model 2695 HPLC system (Waters Corp., Milford, Mass.). It was equipped with a built-in autosampler and a Model 996 diode array UV detector. The UV detector was set to monitor 210-400 nm. Separations for metabolite characterization were accomplished on a Phenomenex Luna C18(2) column (150×2.1 mm, 5 μm) (Phenomenex, Torrance, Calif.) equipped with a Keystone Uniguard C18 guard column (10×2.1 mm) (Thermo Electron Corp., Bellefonte, Pa.). The column temperature was 25° C. The flow rate was 0.2 mL/min. Mobile phase A was 10 mM ammonium acetate in water and mobile phase B was acetonitrile.

[3] = Tigecycline metabolites identified in CD-1 mouse serum and urine and rabbit serum samples (LC/MS); format: in vivo; settings: in vivo, iv
Experimental: The column temperature was 25° C. The flow rate was 0.2 mL/min. […] Gradient 1 was used for metabolite identification (qualitative analysis).
LC/MS analysis was conducted on extracts of serum and from CD-1 mice and rabbits, and on urine from CD-1 mice. The mass spectral data for tigecycline and its metabolites are discussed below.

[4] = Stability of [14C]tigecycline in control human urine incubated at 37° C.; settings: for percent of radioactivity in spiked control urine: 37° C., 5 μg/mL
Experimental: The stability of [^14C]tigecycline was determined in control human urine spiked with [^14C]tigecycline at 5 μg/mL and incubated at 37° C. […] Aliquots (500 μL) were removed at 0, 1, 4, 8 and 24 hours and placed into fresh vials. These urine samples were processed and analyzed as described for serum in control example 2.

[5] = Stability of [14C]tigecycline in control human serum incubated at 37° C.; settings: for percent radioactivity in spiked control serum: 37° C., 3 μg/mL
Experimental: The stability of [^14C]tigecycline was examined in control serum incubated at 37° C. for up to 24 hours.
The stability of [^14C]tigecycline was determined in control human serum spiked with [^14C]tigecycline at 3 μg/mL and incubated at 37° C. […] Aliquots (500 μL) were removed at 0, 1, 4, 8 and 24 hours and placed into fresh vials. EDTA (40 μL of 0.5 M) was added and samples centrifuged at 14,000 rpm and room temperature for 10 min (Eppendorf centrifuge, Model 5415C). Supernatants were transferred to HPLC vials and analyzed by HPLC with radioactivity flow detection.

[6] = Mass balance: percent of [14C]tigecycline dose excreted in human urine and feces
Experimental: The concentration of tigecycline-related components in serum, urine and feces was calculated based on the total radioactivity concentrations reported elsewhere. These concentrations were converted to ng-tigecycline equivalents using the specific activity of the dose (1.00 μCi/mg). Using this value, the concentrations of the specific components were then estimated based on the distribution of radioactivity in the radiochromatograms.
(§1) An open-label, inpatient, multiple-dose tigecycline, single-dose [^14C]tigecycline metabolic disposition and mass balance study was performed in six healthy male volunteers. The clinical protocol called for twelve subjects. Of these twelve, six received the radioactive dose (subjects 1, 4, 5, 6, 7, and 8 with subject 8 later dropping out of the study.) Eligible subjects were selected based on inclusion/exclusion criteria, medical history, physical examination and additional procedures outlined in the study protocol. Each subject received a 100 mg loading dose on the morning of Day 1, followed by a 50 mg maintenance dose every 12 hours for an additional 5 doses. On the morning of study Day 4, six subjects received a single 50 mg dose of [^14C]tigecycline (50 μCi). Each tigecycline dose was administered via a 30-minute intravenous infusion.
(§2) Serum samples were collected for metabolite profiling prior to tigecycline dosing and 1, 4, 8, 24 and 48 hours following the [^14C]-labeled dose. For metabolite profiling, urine samples were collected at 0-4, 4-8, 8-24 and 24-48 hours and fecal samples were collected up to 48 hours following the [^14C]-labeled dose. Serum and urine samples, and fecal homogenates were shipped on dry ice to the Biotransformation Division of Drug Safety and Metabolism, Wyeth Research, Collegeville, Pa. The details of the sample collection and sample storage are described in the mass balance portion of the study. The 24-48 hour urine and fecal samples for subject #6 were incomplete since the subject withdrew from the study. While samples from this subject were used for metabolite profiling, the samples were not included in the mass balance calculations.

[7] = Stability of [14C]tigecycline during extraction from control human serum; format: in vitro ADME
Description: In serum samples, [^14C]tigecycline accounted for 94% of the radioactivity prior to spiking and extracting the samples. After the extraction process, the amount of [^14C]tigecycline had decreased 24% to 70% of the radioactivity. There was a corresponding increase in other radioactive components, mainly the epimer of tigecycline, which increased from 4% prior to extraction to 22% following the extraction. Other minor products, which included M3a, increased from 2% prior to extraction to 8% following the extraction.
Additional serum samples were prepared as descried above and extracted. This was done to determine the effects, if any, of the extraction process on the stability of [^14C]tigecycline. These samples were analyzed by HPLC with radioactivity flow detection, as described in example 6.

[8] = rats, cited from earlier work
[9] = dogs, cited from earlier work
[10] = Stability of [14C]tigecycline during extraction from control human fecal homogenates; format: in vitro ADME
Description: Similar results were observed following the extraction of [^14C]tigecycline from control fecal homogenates. In these samples, [^14C]tigecycline accounted for 94% of the radioactivity prior to extraction and 68% following the extraction. There was a corresponding increase in the epimer of tigecycline, which represented 4% of the radioactivity prior to extraction and 23% following the extraction. […] Other minor products represented less than 1% of the radioactivity prior to the extraction and 4% following the extraction.
The stability of [^14C]tigecycline during the extraction process was determined in control human fecal homogenates spiked with [^14C]tigecycline at 5 μg/g of homogenate. […] Samples were extracted and analyzed by HPLC with radioactivity flow detection.

[11] = in vivo
Experimental: as §1, §2
Urine samples for metabolite profiling were extracted, as discussed below, using a method previously developed and used for rat and dog urine samples. Urine samples that had been collected at various intervals up to 48 hours following the dose of [^14C]tigecycline were thawed on ice prior to extraction. Aliquots (1 mL) of the individual urine samples were transferred to clean tubes and 0.2 M EDTA, for a final concentration of 40 mM EDTA, was added. […] Samples were mixed, centrifuged and the supernatants analyzed for metabolites by HPLC radiochromatography with selected samples also analyzed by LC/MS.
HPLC analyses were performed using a Waters 2695 Alliance Separation Module (Waters Corp., Milford, Mass.), a Waters Model 2487 dual wavelength UV absorbance detector, set to monitor 350 nm, and was in-line with a Gilson 215 liquid handler (Gilson, Middleton, Wis.) equipped to collect fractions at 20 second intervals. Fractions were collected into 96-well deep well Luma plates and analyzed using TopCount NXT. The autosampler temperature was set to 4° C. […]

relative amount in human serum based on LC/MS data [1]: minor metabolites
relative amount in human urine based on LC/MS data [1]: minor metabolites
Compound: CC(=O)Nc1cc(N(C)C)c2c(c1O)C(=O)C1=C(O)[C@]3(O)C(=O)C(C(N)=O)=C(O)[C@H](N(C)C)[C@@H]3C[C@@H]1C2 (single isomer, unassigned) [Metabolite M8, epimer of N-acetyl-9-aminominocycline]

observed in mouse urine by LC/MS [2]: detected
relative amount in human serum based on LC/MS data [1]: minor metabolites
relative amount in human urine based on LC/MS data [1]: minor metabolites
Species and matrix in which identified [3]: R-S, M-S, M-U
Compound: CN(C)c1cc(N)c(O)c2c1C[C@H]1C[C@H]3[C@H](N(C)C)C(=O)C(C(N)=O)=C(O)[C@@]3(O)C(=O)C1=C2O [Metabolite M3, 9-aminominocycline]

Compound: CN(C)c1cc(N[14C](=O)CNC(C)(C)C)c(O)c2c1CC1CC3C(N(C)C)C(O)=C(C(N)=O)C(=O)C3(O)C(O)=C1C2=O (centres unmarked) [[^14C]tigecycline]
percent of radioactivity in spiked control urine ([4]; 0 hours): 92%
decrease in percent of radioactivity in spiked control urine ([4]; 0 to 24 hours at 37° C.): 18%
percent of radioactivity in spiked control urine ([4]; 24 hours): 74%
percent radioactivity in spiked control serum ([5]; 0 hours): 90%
percent radioactivity in spiked control serum ([5]; 24 hours): 81%
decrease in percent radioactivity in spiked control serum ([5]; over 24 hours at 37° C.): approximately 9%
radioactivity excreted in feces (mean) ([6]; complete collection, n=3): 58.6±4.4%
radioactivity excreted in urine (mean) ([6]; complete collection, n=3): 33.2±1.9%
[14C]tigecycline dose recovered ([6]; first 48 hours, urine + feces): Approximately 50%
Mean total recovery of radioactivity in human excreta ([6]; urine + feces, n=3): 91.8%
percent of the radioactivity, control serum ([7]; after the extraction process): 70%
decrease in percent of the radioactivity, control serum ([7]; during the extraction process): 24%
percent of the radioactivity, control serum ([7]; prior to spiking and extracting): 94%
single intravenous [14C]tigecycline dose recovered ([8]; including cage rinse): approximately 89%
dose recovered in feces [8]: 53%
dose recovered in urine [8]: 34%
single intravenous [14C]tigecycline dose recovered ([9]; including cage rinse): approximately 89%
dose recovered in feces [9]: 47%
dose recovered in urine [9]: 36%
percent of the radioactivity, control fecal homogenates ([10]; following the extraction): 68%
percent of the radioactivity, control fecal homogenates ([10]; prior to extraction, 5 μg/g of homogenate): 94%

percent of the radioactivity in urine [11]: less than 1%
relative amount in human urine based on LC/MS data [1]: trace amounts
Compound: Hydroxy Tigecycline [Metabolite M1]
